Common to all, as to test: relative viability (nuclei count vs DMSO), 5 days (fraction); higher = more cells survive
Compound in one experiment: C1COCCN1CC2=CC(=O)C(=CO2)OCCCCCSC3=C4C=CC(=CC4=NC=C3)C(F)(F)F [EHT 1864]
The essentials:
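Lung cancer cell lines received five library-drug doses (not always all listed) spaced by √10, pinned on vehicle-anchored 1536-well plates after an overnight stay at 37 °C. Five days later, with no medium change, nuclei were Hoechst-stained, imaged at 4× and counted with MetaXpress. Viability is treated-well nuclei relative to vehicle-well nuclei, as a median across plates. Passing plates had control CV below 25% and at least one doubling.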

Compound in the experiment “EHT 1864 + Navitoclax”: C1COCCN1CC2=CC(=O)C(=CO2)OCCCCCSC3=C4C=CC(=CC4=NC=C3)C(F)(F)F [EHT 1864] + CC1(C)CCC(c2ccc(Cl)cc2)=C(CN2CCN(c3ccc(C(=O)NS(=O)(=O)c4ccc(N[C@H](CCN5CCOCC5)CSc5ccccc5)c(S(=O)(=O)C(F)(F)F)c4)cc3)CC2)C1 [Navitoclax] (partner 0.5 µM)
The procedure, abridged:
(§1)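 Medians of duplicate plates are given as relative viability. That measure is the nuclei count in treated wells divided by the count in vehicle wells. Counts were taken on 4× images of lung cancer cell lines in 1536-well plates, 5 days after pin-tool dosing the day after seeding with one drug alone or a fixed anchor-drug dose plus five library-drug doses (not always all listed) in √10 steps.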

Compound in the experiment “EHT 1864 + Tozasertib”: C1COCCN1CC2=CC(=O)C(=CO2)OCCCCCSC3=C4C=CC(=CC4=NC=C3)C(F)(F)F [EHT 1864] + Cc1cc(Nc2cc(N3CCN(C)CC3)nc(Sc3ccc(NC(=O)C4CC4)cc3)n2)n[nH]1 [Tozasertib] (partner 0.1 µM)
The procedure, abridged: as §1

Compound in the experiment “EHT 1864 + Phenformin”: C1COCCN1CC2=CC(=O)C(=CO2)OCCCCCSC3=C4C=CC(=CC4=NC=C3)C(F)(F)F [EHT 1864] + N=C(N)NC(=N)NCCc1ccccc1 [Phenformin] (partner 250 µM)
The essentials:
as §1

NCI-H1993: the relative viability with EHT 1864 (0.04 µM) was found to be 0.965; with EHT 1864 (0.4 µM), 0.957; with EHT 1864 (1.265 µM), 1.03; with EHT 1864 (4 µM), 0.873; with EHT 1864 + Navitoclax (first compound 0.04 µM), 0.84; with EHT 1864 + Navitoclax (first compound 0.1265 µM), 0.697. Moreover, the relative viability worked out at 0.866 with EHT 1864 + Navitoclax (first compound 0.4 µM); 1.08 in the experiment with EHT 1864 + Navitoclax (first compound 1.265 µM); 0.849 with EHT 1864 + Navitoclax (first compound 4 µM); 0.581 with EHT 1864 + Tozasertib (first compound 0.04 µM); 0.549 with EHT 1864 + Tozasertib (first compound 0.4 µM); 0.575 with EHT 1864 + Tozasertib (first compound 1.265 µM). The relative viability with EHT 1864 + Tozasertib (first compound 4 µM) came out at 0.536; in the experiment with EHT 1864 + Phenformin (first compound 0.04 µM) it was 0.537; with EHT 1864 + Phenformin (first compound 0.4 µM), 0.488; with EHT 1864 + Phenformin (first compound 1.265 µM), 0.534; with EHT 1864 + Phenformin (first compound 4 µM), 0.508.
Turning to NCI-H2009, the relative viability is 0.971 with EHT 1864 (0.04 µM); 0.945 with EHT 1864 (0.1265 µM); 1.03 in the experiment with EHT 1864 (0.4 µM); 0.906 with EHT 1864 (1.265 µM); 0.877 in the experiment with EHT 1864 (4 µM); 1.16 with EHT 1864 + Navitoclax (first compound 0.04 µM). In addition, the relative viability with EHT 1864 + Navitoclax (first compound 0.1265 µM) turned out to be 1.15; with EHT 1864 + Navitoclax (first compound 0.4 µM), 1.14; with EHT 1864 + Navitoclax (first compound 1.265 µM) it was 1.11; in the experiment with EHT 1864 + Navitoclax (first compound 4 µM), 0.879; with EHT 1864 + Tozasertib (first compound 0.04 µM) it was 0.736; with EHT 1864 + Tozasertib (first compound 0.1265 µM), 0.648. Also, the relative viability with EHT 1864 + Tozasertib (first compound 0.4 µM) was 0.765; with EHT 1864 + Tozasertib (first compound 1.265 µM), 0.532; with EHT 1864 + Tozasertib (first compound 4 µM), 0.476; with EHT 1864 + Phenformin (first compound 0.04 µM), 0.467; with EHT 1864 + Phenformin (first compound 0.1265 µM), 0.468; with EHT 1864 + Phenformin (first compound 0.4 µM), 0.493. For the same cell line, the results for the relative viability with EHT 1864 + Phenformin (first compound 1.265 µM) and in the experiment with EHT 1864 + Phenformin (first compound 4 µM) were 0.362 and 0.436, respectively.
On to NCI-H2023, for which the relative viability with EHT 1864 (0.04 µM) was determined as 0.944; with EHT 1864 (0.1265 µM), 0.817; in the experiment with EHT 1864 (0.4 µM), 0.893; with EHT 1864 (1.265 µM) it was 0.925; in the experiment with EHT 1864 (4 µM), 0.939; with EHT 1864 + Navitoclax (first compound 0.04 µM) it was 0.964. Also, the relative viability was 0.978 with EHT 1864 + Navitoclax (first compound 0.1265 µM); 0.874 in the experiment with EHT 1864 + Navitoclax (first compound 0.4 µM); 0.939 with EHT 1864 + Navitoclax (first compound 1.265 µM); 0.841 in the experiment with EHT 1864 + Navitoclax (first compound 4 µM); 0.281 in the experiment with EHT 1864 + Tozasertib (first compound 0.04 µM); 0.294 in the experiment with EHT 1864 + Tozasertib (first compound 0.1265 µM). The relative viability with EHT 1864 + Tozasertib (first compound 0.4 µM) is 0.29; with EHT 1864 + Tozasertib (first compound 1.265 µM) it was 0.248; in the experiment with EHT 1864 + Tozasertib (first compound 4 µM), 0.207; with EHT 1864 + Phenformin (first compound 0.04 µM) it was 0.405; with EHT 1864 + Phenformin (first compound 0.1265 µM), 0.417; with EHT 1864 + Phenformin (first compound 0.4 µM) it was 0.371. The relative viability with EHT 1864 + Phenformin (first compound 1.265 µM) is 0.358; with EHT 1864 + Phenformin (first compound 4 µM) it was 0.347.
Turning to NCI-H2085, the relative viability with EHT 1864 (0.04 µM) was found to be 0.988; with EHT 1864 (0.1265 µM), 0.897; in the experiment with EHT 1864 (0.4 µM), 0.987; in the experiment with EHT 1864 (1.265 µM) it was 1.01; with EHT 1864 (4 µM) it was 0.903; in the experiment with EHT 1864 + Navitoclax (first compound 0.04 µM), 1.03. In addition, the relative viability amounted to 1.11 with EHT 1864 + Navitoclax (first compound 0.1265 µM); 1.08 in the experiment with EHT 1864 + Navitoclax (first compound 0.4 µM); 1.13 with EHT 1864 + Navitoclax (first compound 1.265 µM); 1.14 with EHT 1864 + Navitoclax (first compound 4 µM); 0.8 with EHT 1864 + Tozasertib (first compound 0.04 µM); 0.791 in the experiment with EHT 1864 + Tozasertib (first compound 0.4 µM). The relative viability was 0.641 with EHT 1864 + Tozasertib (first compound 1.265 µM); 0.576 with EHT 1864 + Tozasertib (first compound 4 µM); 0.731 in the experiment with EHT 1864 + Phenformin (first compound 0.04 µM); 0.832 with EHT 1864 + Phenformin (first compound 0.4 µM); 0.808 with EHT 1864 + Phenformin (first compound 1.265 µM); 0.732 in the experiment with EHT 1864 + Phenformin (first compound 4 µM).

(Values after the supplement of paper PMC10307832.)
